Experimental data as given in ChEMBL document CHEMBL1201862, “PubChem BioAssay data set” (2004).
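A five-concentration, 48-hour dose response in 96-well plates underlies each endpoint, interpolated linearly between surrounding concentrations. Abbreviation: GI50, concentration required for 50% inhibition of growth.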 Active and inactive are the calls of the source. No stated cut-off is given here; in the data, active = GI50 up to about 1.1 µM and inactive = higher.

Experiments:
Test in all cases: DTP human tumour cell line panel, 48 h
KM-20L2 = system: KM-20L2
SK-MEL-5 = system: SK-MEL-5
NCI-H23 = system: NCI-H23
XF498 = system: XF498
SW-620 = system: SW-620
CCRF-CEM = system: CCRF-CEM
M19-MEL = system: M19-MEL
KM12 = system: KM12
Malme-3M = system: Malme-3M
SK-MEL-28 = system: SK-MEL-28
MOLT-4 = system: MOLT-4
DLD-1 = system: DLD-1
SNB-19 = system: SNB-19
786-0 = system: 786-0
DMS-114 = system: DMS-114
A549 = system: A549
HCT-15 = system: HCT-15
U-251 = system: U-251
DMS-273 = system: DMS-273
K562 = system: K562
SNB-75 = system: SNB-75
EKVX = system: EKVX
HT-29 = system: HT-29
SF-539 = system: SF-539
SF-295 = system: SF-295
SK-OV-3 = system: SK-OV-3
UACC-62 = system: UACC-62
RXF 393 = system: RXF 393
RPMI-8226 = system: RPMI-8226
SN12C = system: SN12C
HCT-116 = system: HCT-116
HOP-62 = system: HOP-62
ACHN = system: ACHN
NCI-H522 = system: NCI-H522
UO-31 = system: UO-31
OVCAR-3 = system: OVCAR-3
IGROV-1 = system: IGROV-1
TK-10 = system: TK-10
OVCAR-8 = system: OVCAR-8
UACC-257 = system: UACC-257
NCI-H226 = system: NCI-H226
NCI-H460 = system: NCI-H460
LOX IMVI = system: LOX IMVI
HOP-18 = system: HOP-18
M14 = system: M14
COLO 205 = system: COLO 205
SNB-78 = system: SNB-78
HOP-92 = system: HOP-92
HL-60 = system: HL-60
SK-MEL-2 = system: SK-MEL-2
CAKI-1 = system: CAKI-1
LXFL 529 = system: LXFL 529
SF-268 = system: SF-268
OVCAR-5 = system: OVCAR-5
SR = system: SR

`NC(=O)C1C(=O)Oc2cccnc21` (centres undefined) was tested, and the GI50 (KM-20L2) was > 100 µM (inactive), the GI50 (SK-MEL-5) was > 100 µM (inactive) and the GI50 (NCI-H23) was > 100 µM (inactive). For the same compound, the GI50 (XF498) was > 100 µM (inactive), the GI50 (SW-620) was 83 µM (inactive) and the GI50 (CCRF-CEM) was > 100 µM (inactive). The GI50 (M19-MEL) was > 100 µM (inactive), the GI50 (KM12) was > 100 µM (inactive) and the GI50 (Malme-3M) was > 100 µM (inactive). The GI50 (SK-MEL-28) was > 100 µM (inactive), the GI50 (MOLT-4) was > 100 µM (inactive) and the GI50 (DLD-1) was > 100 µM (inactive). For the same compound, the GI50 (SNB-19) was > 100 µM (inactive), the GI50 (786-0) was > 100 µM (inactive) and the GI50 (DMS-114) was > 100 µM (inactive). The GI50 (A549) was > 100 µM (inactive), the GI50 (HCT-15) was greater than 100 µM and the GI50 (U-251) was > 100 µM (inactive). The GI50 (DMS-273) was > 100 µM (inactive), the GI50 (K562) was > 100 µM (inactive) and the GI50 (SNB-75) was 17.8 µM (inactive). The GI50 (EKVX) was > 100 µM (inactive), the GI50 (HT-29) was > 100 µM (inactive) and the GI50 (SF-539) was > 100 µM (inactive). The GI50 (SF-295) was > 100 µM (inactive), the GI50 (SK-OV-3) was > 100 µM (inactive) and the GI50 (UACC-62) was > 100 µM (inactive). The GI50 (RXF 393) was > 100 µM (inactive), the GI50 (RPMI-8226) was > 100 µM (inactive) and the GI50 (SN12C) was > 100 µM (inactive). For the same compound, the GI50 (HCT-116) was > 100 µM (inactive), the GI50 (HOP-62) was > 100 µM (inactive) and the GI50 (ACHN) was > 100 µM (inactive). The GI50 (NCI-H522) was > 100 µM (inactive), the GI50 (UO-31) was 99.8 µM (inactive) and the GI50 (OVCAR-3) was > 100 µM (inactive). The GI50 (IGROV-1) was > 100 µM (inactive), the GI50 (TK-10) was > 100 µM (inactive) and the GI50 (OVCAR-8) was > 100 µM (inactive). The GI50 (UACC-257) was 89.9 µM (inactive), the GI50 (NCI-H226) was 96.2 µM (inactive) and the GI50 (NCI-H460) was 86.7 µM (inactive). The GI50 (LOX IMVI) was > 100 µM (inactive), the GI50 (HOP-18) was > 100 µM (inactive) and the GI50 (M14) was > 100 µM (inactive). For the same compound, the GI50 (COLO 205) was > 100 µM (inactive).
In the case of `COc1ccc(C[C@H](N)C(=O)N2C[C@@H](CO)C[C@@H](n3cnc4c(N(C)C)ncnc43)C2)cc1`, the GI50 (KM-20L2) is reported as > 100 µM (inactive), the GI50 (SK-MEL-5) is reported as > 100 µM (inactive) and the GI50 (NCI-H23) is reported as > 100 µM (inactive). The GI50 (SW-620) was > 100 µM (inactive), the GI50 (CCRF-CEM) was > 100 µM (inactive) and the GI50 (SNB-78) was > 100 µM (inactive). For the same compound, the GI50 (M19-MEL) was > 100 µM (inactive), the GI50 (KM12) was > 100 µM (inactive) and the GI50 (Malme-3M) was > 100 µM (inactive). For the same compound, the GI50 (HOP-92) was > 100 µM (inactive), the GI50 (SK-MEL-28) was > 100 µM (inactive) and the GI50 (MOLT-4) was > 100 µM (inactive). For the same compound, the GI50 (DLD-1) was > 100 µM (inactive), the GI50 (SNB-19) was > 100 µM (inactive) and the GI50 (HL-60) was > 100 µM (inactive). The GI50 (786-0) was > 100 µM (inactive), the GI50 (DMS-114) was > 100 µM (inactive) and the GI50 (A549) was > 100 µM (inactive). The GI50 (HCT-15) was greater than 100 µM, the GI50 (U-251) was > 100 µM (inactive) and the GI50 (DMS-273) was > 100 µM (inactive). The GI50 (K562) was > 100 µM (inactive), the GI50 (EKVX) was > 100 µM (inactive) and the GI50 (HT-29) was > 100 µM (inactive). The GI50 (SF-539) was > 100 µM (inactive), the GI50 (SF-295) was > 100 µM (inactive) and the GI50 (SK-MEL-2) was > 100 µM (inactive). For the same compound, the GI50 (SK-OV-3) was > 100 µM (inactive), the GI50 (CAKI-1) was > 100 µM (inactive) and the GI50 (LXFL 529) was > 100 µM (inactive). The GI50 (UACC-62) was > 100 µM (inactive), the GI50 (RPMI-8226) was > 100 µM (inactive) and the GI50 (HCT-116) was > 100 µM (inactive). For the same compound, the GI50 (HOP-62) was > 100 µM (inactive), the GI50 (NCI-H522) was > 100 µM (inactive) and the GI50 (UO-31) was > 100 µM (inactive). The GI50 (OVCAR-3) was > 100 µM (inactive), the GI50 (IGROV-1) was > 100 µM (inactive) and the GI50 (SF-268) was > 100 µM (inactive). The GI50 (TK-10) was > 100 µM (inactive), the GI50 (OVCAR-8) was > 100 µM (inactive) and the GI50 (UACC-257) was > 100 µM (inactive). The GI50 (NCI-H460) was > 100 µM (inactive), the GI50 (OVCAR-5) was > 100 µM (inactive) and the GI50 (SR) was > 100 µM (inactive). For the same compound, the GI50 (LOX IMVI) was > 100 µM (inactive), the GI50 (HOP-18) was > 100 µM (inactive) and the GI50 (M14) was > 100 µM (inactive).
